# Test results published in PubChem BioAssay (NCI).
#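 Here, GI50 denotes the concentration required for 50% inhibition of growth. TGI denotes the concentration required for complete inhibition of growth.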
# Tests used:
# Experiment in all cases: inhibition of tumour cell growth, NCI panel, 384-well format
# COLO 205 colon = test system: COLO 205 colon
# RPMI-8226 leukemia = test system: RPMI-8226 leukemia
# U251 glioblastoma = test system: U251 glioblastoma
# BT-549 breast = test system: BT-549 breast
# HOP-92 NSCLC = test system: HOP-92 NSCLC
# SN12C renal = test system: SN12C renal
# LOX IMVI melanoma = test system: LOX IMVI melanoma
# MDA-MB-468 breast = test system: MDA-MB-468 breast
# MDA-MB-231 breast = test system: MDA-MB-231 breast
# UACC-257 melanoma = test system: UACC-257 melanoma
# HT29 colon = test system: HT29 colon
# SR leukemia = test system: SR leukemia
# A549 NSCLC = test system: A549 NSCLC
# UO-31 renal = test system: UO-31 renal
# KM12 colon = test system: KM12 colon
# CAKI-1 renal = test system: CAKI-1 renal
# DU-145 prostate = test system: DU-145 prostate
# MOLT-4 leukemia = test system: MOLT-4 leukemia
# NCI-H23 lung = test system: NCI-H23 lung
# OVCAR-8 ovarian = test system: OVCAR-8 ovarian
# MALME-3M melanoma = test system: MALME-3M melanoma
# NCI-H460 NSCLC = test system: NCI-H460 NSCLC
# A498 renal = test system: A498 renal
# HS 578T breast = test system: HS 578T breast
# SF-295 CNS = test system: SF-295 CNS
# EKVX NSCLC = test system: EKVX NSCLC
# 786-0 renal = test system: 786-0 renal
# SNB-19 CNS = test system: SNB-19 CNS
# HCT-116 colon = test system: HCT-116 colon
# MCF7 breast = test system: MCF7 breast
# NCI-H522 lung = test system: NCI-H522 lung
# HCT-15 colon = test system: HCT-15 colon
# T-47D breast = test system: T-47D breast
# HCC-2998 colon = test system: HCC-2998 colon
# M14 melanoma = test system: M14 melanoma
# UACC-62 melanoma = test system: UACC-62 melanoma
# MDA-MB-435 melanoma = test system: MDA-MB-435 melanoma
# OVCAR-5 ovarian = test system: OVCAR-5 ovarian
# IGROV1 ovarian = test system: IGROV1 ovarian
# SK-MEL-5 melanoma = test system: SK-MEL-5 melanoma
# HL-60(TB) leukemia = test system: HL-60(TB) leukemia
# OVCAR-4 ovarian = test system: OVCAR-4 ovarian
# ACHN renal = test system: ACHN renal
# SK-OV-3 ovarian = test system: SK-OV-3 ovarian
# CCRF-CEM leukemia = test system: CCRF-CEM leukemia
# RXF 393 renal = test system: RXF 393 renal
# NCI/ADR-RES ovarian = test system: NCI/ADR-RES ovarian
compound,measurement,setting,value
CNCc1ccc(C)c(NC(=O)c2ccc(Nc3nc(-c4ccccc4)c4ccccc4n3)cc2)c1,GI50,COLO 205 colon,1.6 µM
same,TGI,COLO 205 colon,2.96 µM
same,GI50,RPMI-8226 leukemia,1.72 µM
same,TGI,RPMI-8226 leukemia,3.1 µM
same,GI50,U251 glioblastoma,1.73 µM
same,TGI,U251 glioblastoma,3.13 µM
same,GI50,BT-549 breast,1.7 µM
same,TGI,BT-549 breast,3.09 µM
same,GI50,HOP-92 NSCLC,1.79 µM
same,TGI,HOP-92 NSCLC,3.18 µM
same,GI50,SN12C renal,1.59 µM
same,TGI,SN12C renal,2.96 µM
same,GI50,LOX IMVI melanoma,1.55 µM
same,TGI,LOX IMVI melanoma,2.91 µM
same,GI50,MDA-MB-468 breast,1.71 µM
same,TGI,MDA-MB-468 breast,3.09 µM
same,GI50,MDA-MB-231 breast,1.84 µM
same,TGI,MDA-MB-231 breast,3.25 µM
same,GI50,UACC-257 melanoma,0.654 µM
same,TGI,UACC-257 melanoma,1.6 µM
same,GI50,HT29 colon,1.41 µM
same,TGI,HT29 colon,2.74 µM
same,GI50,SR leukemia,0.342 µM
same,TGI,SR leukemia,0.799 µM
same,GI50,A549 NSCLC,1.8 µM
same,TGI,A549 NSCLC,3.24 µM
same,GI50,UO-31 renal,1.97 µM
same,TGI,UO-31 renal,3.4 µM
same,GI50,KM12 colon,1.42 µM
same,TGI,KM12 colon,2.75 µM
same,GI50,CAKI-1 renal,0.42 µM
same,TGI,CAKI-1 renal,1.36 µM
same,GI50,DU-145 prostate,1.93 µM
same,TGI,DU-145 prostate,3.48 µM
same,GI50,MOLT-4 leukemia,1.51 µM
same,TGI,MOLT-4 leukemia,2.85 µM
same,GI50,NCI-H23 lung,1.83 µM
same,TGI,NCI-H23 lung,3.27 µM
same,GI50,OVCAR-8 ovarian,1.64 µM
same,TGI,OVCAR-8 ovarian,3.02 µM
same,GI50,MALME-3M melanoma,1.31 µM
same,TGI,MALME-3M melanoma,2.59 µM
same,GI50,NCI-H460 NSCLC,1.36 µM
same,TGI,NCI-H460 NSCLC,2.71 µM
same,GI50,A498 renal,1.63 µM
same,TGI,A498 renal,3 µM
same,GI50,HS 578T breast,1.93 µM
same,TGI,HS 578T breast,3.34 µM
same,GI50,SF-295 CNS,1.85 µM
same,TGI,SF-295 CNS,3.26 µM
same,GI50,EKVX NSCLC,1.57 µM
same,TGI,EKVX NSCLC,2.95 µM
same,GI50,786-0 renal,1.5 µM
same,TGI,786-0 renal,2.84 µM
same,GI50,SNB-19 CNS,1.86 µM
same,TGI,SNB-19 CNS,3.31 µM
same,GI50,HCT-116 colon,1.73 µM
same,TGI,HCT-116 colon,3.16 µM
same,GI50,MCF7 breast,1.48 µM
same,TGI,MCF7 breast,2.85 µM
same,GI50,NCI-H522 lung,1.84 µM
same,TGI,NCI-H522 lung,3.25 µM
same,GI50,HCT-15 colon,1.05 µM
same,TGI,HCT-15 colon,2.39 µM
same,GI50,T-47D breast,1.45 µM
same,TGI,T-47D breast,2.78 µM
same,GI50,HCC-2998 colon,1.28 µM
same,TGI,HCC-2998 colon,2.55 µM
same,GI50,M14 melanoma,2.03 µM
same,TGI,M14 melanoma,3.47 µM
same,GI50,UACC-62 melanoma,1.61 µM
same,TGI,UACC-62 melanoma,2.97 µM
same,GI50,MDA-MB-435 melanoma,1.91 µM
same,TGI,MDA-MB-435 melanoma,3.34 µM
same,GI50,OVCAR-5 ovarian,2.04 µM
same,TGI,OVCAR-5 ovarian,3.99 µM
same,GI50,IGROV1 ovarian,1.81 µM
same,TGI,IGROV1 ovarian,3.6 µM
same,GI50,SK-MEL-5 melanoma,1.39 µM
same,TGI,SK-MEL-5 melanoma,2.69 µM
same,GI50,HL-60(TB) leukemia,1.04 µM
same,TGI,HL-60(TB) leukemia,2.4 µM
same,GI50,OVCAR-4 ovarian,1.86 µM
same,TGI,OVCAR-4 ovarian,3.4 µM
same,GI50,ACHN renal,1.84 µM
same,TGI,ACHN renal,3.26 µM
same,GI50,SK-OV-3 ovarian,1.78 µM
same,TGI,SK-OV-3 ovarian,3.18 µM
same,GI50,CCRF-CEM leukemia,1.58 µM
same,TGI,CCRF-CEM leukemia,2.94 µM
same,GI50,RXF 393 renal,1.46 µM
same,TGI,RXF 393 renal,2.79 µM
same,GI50,NCI/ADR-RES ovarian,1.86 µM
same,TGI,NCI/ADR-RES ovarian,3.33 µM
